Patent publication US20230414764A1, “Template Assembly by Proximity-Enhanced Reactivity via Metabolic Labeling” (The General Hospital Corporation, priority 2020, published 2023)
Where “and” joins values, the source holds several entries; their conditions need not be identical. Identical values can stand only once.

How the values were obtained:
[1] = system: murine ovarian cancer cell line ID8; assay: Metabolic labeling (AzNAM/DPEG-FAM) of ID8 cells, flow cytometric analysis; format: cell-based
Source text: For Examples 7-11, metabolic labeling was monitored by treatment of cultured cells with the sugar analog peracetylated N-azidoacetylmannosamine (AzNAM), followed after harvest with treatment with the bifunctional click/fluorescent compound DBCO-PEG3-FAM (DPEG-FAM). Surface azide groups resulting from the metabolic labeling process react with the DBCO group (dibenzocyclooctyne) of DPEG-FAM, and were monitored by flow cytometry.
The murine ovarian cancer cell line ID8 represent an example of a cell type giving a relatively low metabolic labeling response, as assessed by AzNAM/DPEG-FAM as usual, results shown in FIGS. 22A-22D. Subconfluent ID8 cells were treated with or without 100 ng/ml murine interferon-beta (mIFNβ), and then treated with AzNAM and DPEG-FAM in a similar manner as for the Jurkat cells of Examples 7 and 8. […] FIGS. 22A-22D show flow cytometric analysis of murine ID8 cells after treatment with 100 ng/ml murine IFN-beta for 3 days, with addition of 100 μM AzNAM at 22 hr prior to harvest. Cells were treated with DPEG-FAM prior to flow analysis.
The murine-specific STING agonist DMXAA (R&D Systems) was used to test ID8 cells with a similar experimental arrangement as for Example 9. […] FIGS. 24A-24D show flow cytometric analysis of murine ID8 cells after treatment with 20 μM murine STING agonist DMXAA for 3 days, with addition of 100 μM AzNAM at 22 hr prior to harvest. Cells were treated with DPEG-FAM prior to flow analysis.

HeLa cells [2] = assay: Surface template / ligation-template (LT) qPCR assay on azide-labeled HeLa cells; format: cell-based, human; details: HeLa cells treated with greater than 6 μM of AzNAM
Source text: For example, a nuclease-resistant template (with a 2′-O-methyl RNA backbone) can be modified with a 5′ or 3′ DBCO group, allowing it to specifically react with azides on the surface of metabolically labeled cells. Following this, the template-bearing cells can be treated with two shorter “ligation template” (LT) oligonucleotides each complementary to contiguous regions of the template, and where one of the LT oligonucleotides bears a 5′-phosphate (LT1). After annealing, the 5′-phosphate of LT1 can be ligated with the 3′-hydroxyl on its partner LT (LT2) adjacent on the same template (see, FIG. 16). For this ligation, a ligase enzyme can be used that is compatible with modified nucleic acid backbones, such as Splint® Ligase (New England Biolabs). Since each LT oligonucleotide is also equipped with an additional priming site, the joined LT (1+2) sequence can be amplified by PCR, and can also easily be amenable to quantitation by qPCR. […]
To apply the surface template/LT assay to azide-labeled HeLa cells, cells were treated with several concentrations of AzNAM in 6-well plates at about 80% confluency. After 20 hours, cells were removed from the plate with CellStripper, washed with […] (SF-RPMI), and counted. […]
LT1 and LT2 oligonucleotides complementary to the surface template were added in equimolar quantities to a final concentration of 0.2 pmol/μl. […]

HeLa cells [3] = assay: Azide metabolic labeling of HeLa cells with AzNAM, reaction with DBCO-FAM, fluorescent plate reader; format: cell-based, human; details: AzNAM 10-125 μM, 20 hours, DBCO-FAM 10 μM, 96-well plate reader
Experimental: Initially, cells were cultured in a suitable culture vessel such that their level of confluency at the time of addition of the azide-modified sugar, AzNAM, was not more than 80%.
In particular, HeLa cells were plated in 6-well plates (2.5×10^4 cells/well) and incubated for 48 hours in DMEM-10% FBS medium in a standard 5% CO2 atmosphere. Medium from each well was removed, and each well was washed with 2 ml of phosphate buffered saline (PBS), and fresh DMEM-FBS (1 ml) added. Subsequently, varying amounts of AzNAM (solubilized in DMSO) were added to the wells in small (10 μl) volumes to produce the desired final concentrations in the range 10-125 μM (see, FIG. 1). After an additional 20 hours incubation, the medium in each well was removed, and the wells were washed with 2 ml of PBS, followed by addition of 1 ml of PBS. Then, a fluorescent azide reactive molecule, DBCO-FAM (Broadpharm), was directly added to each well to produce a final concentration of 10 μM.
Plates with added DBCO-FAM were protected from bright light and incubated for 1 hour at room temperature. Supernatants in each well were removed, and each well was washed twice with 2 ml of PBS. […] After pelleting and washing in PBS, cells were resuspended in 150 μl of PBS and counted. Defined numbers in 50 μl volumes in a 96-well Blackwell plate (Corning) were assayed for fluorescence in a fluorescent plate reader (Tecan).

HeLa cells [4] = assay: Flow cytometry of AzNAM-labeled HeLa cells reacted with DBCO-FAM; format: cell-based, human; details: AzNAM 125 μM, 20 hours, versus cells receiving no azide-modified sugar
Experimental: In separate cultures, HeLa cells were added to wells of a 12-well plate at 10,000 cells/well, and cultured for 72 hours under normal conditions. The wells were washed with 1 ml of PBS, and 0.5 ml of DMEM-10% FBS was added. AzNAM was added to a final concentration of 125 μM, with cells receiving no azide-modified sugar as controls. After 20 hours, cells were harvested with CellStripper (250 μl/well), washed with PBS, and subjected to flow analysis.

[5] = system: Jurkat cells (human T lymphoma); assay: Metabolic labeling (AzNAM/DPEG-FAM) of Jurkat cells, flow cytometric analysis; format: cell-based
Experimental: Surface azide groups resulting from the metabolic labeling process react with the DBCO group (dibenzocyclooctyne) of DPEG-FAM, and were monitored by flow cytometry.
22 hr prior to harvest, cell media were supplemented with […] AzNAM or control solvent only (DMSO). After harvest and washing, cells (10^6 cells/ml) were treated with 2 mM DPEG-FAM, washed, and subjected to flow cytometric analysis. […] FIGS. 20A-20D show flow cytometric analysis of human Jurkat cells after treatment with 100 ng/ml human IFN-beta for three days, with addition of 100 μM AzNAM at 22 hr prior to harvest. Cells were treated with DPEG-FAM prior to flow analysis.
FIGS. 21A-21D show flow cytometric analysis of human Jurkat cells after treatment with 75 ng/ml human IFN-beta for 3 days, with addition of 100 μM AzNAM at 22 hr prior to harvest. Cells were treated with DPEG-FAM prior to flow analysis.
FIGS. 23A-23D show flow cytometric analysis of human Jurkat cells after treatment with 50 μM STING agonist 1 (STAG1) for 3 days, with addition of 100 μM AzNAM at 22 hr prior to harvest. Cells were treated with DPEG-FAM prior to flow analysis.

HeLa cells [6] = assay: Detection of cell-surface template on AzNAM-labeled HeLa cells with bi-labeled FAM complementary probe, flow analysis; format: cell-based, human; details: AzNAM-treated HeLa cells with surface template; 800 pmol probe, 30 minutes
Source text: Specific cell surface template (positioned by means of click chemical reactions with metabolically derived surface AzNAM; as described in Example 3) can be detected with alternate methods. One such approach uses probe nucleic acid molecules that are complementary to the template of interest, where both 5′- and 3′-ends of such probes are both modified with a fluorescent group, such as FAM.
For example, HeLa cells with surface template of the same sequence as in Example 3 but with a DNA backbone were treated with a 5′/3′ bi-labeled complementary probe of sequence: […] (SEQ ID NO:72). The same cells were also treated with a control bi-labeled scrambled oligonucleotide of sequence CTT […] (SEQ ID NO:73). For treatments, 10^5 washed AzNAM-labeled HeLa cells in 100 μl of serum-free RPMI 1640 medium were incubated with 800 pmol of complementary or scrambled bi-labeled oligonucleotides for 30 minutes at room temperature. Cells were centrifuged (3 minutes at 2000 rpm) and washed once with 500 μl of serum-free RPMI 1640 medium and once with the same volume of PBS. Cells were finally resuspended in 200 μl of PBS and subjected to standard flow analysis.

CC(=O)OC[C@H]1OC(OC(C)=O)[C@@H](NC(=O)CN=[N+]=[N-])[C@@H](OC(C)=O)[C@@H]1OC(C)=O (some centres unmarked) [AzNAM, peracetylated N-azidoacetylmannosamine]
geometric mean fluorescence (GM) ([1]; ID8/AzNAM (Ctrl): 100 μM AzNAM at 22 hr prior to harvest, no-treatment control, DPEG-FAM): 37.68 and 19.14 | increase over background in formation of the templated LT product (HeLa cells [2]): over an order of magnitude | cell-associated fluorescence (HeLa cells [3]): increased as a function of the levels of AzNAM | flow analysis peak shift (HeLa cells [4]): marked and well-demarcated peak shifts

O=C(NCc1ccco1)c1ccc2c(c1)N(Cc1c(F)cccc1Cl)C(=O)CS2 [STAG1]
impact on control DMSO-treated cells ([5]; Jurkat, 50 μM STAG1 3 days): minimal | metabolic labeling enhancement relative to the untreated value ([5]; Jurkat, 50 μM STAG1 3 days): 1.2 fold | geometric mean fluorescence (GM) ([5]; Jurkats/AzNAM+STAG1: 50 μM STAG1 3 days, 100 μM AzNAM 22 hr prior to harvest): 325.69 | geometric mean fluorescence (GM) ([5]; Jurkats/DMSO+STAG1: 50 μM STAG1 3 days, control solvent only): 1.47

Cc1ccc2c(=O)c3cccc(CC(=O)O)c3oc2c1C [DMXAA]
geometric mean fluorescence (GM) ([1]; ID8/AzNAM+DMXAA: 20 μM DMXAA 3 days, 100 μM AzNAM 22 hr prior to harvest): 33.73 | geometric mean fluorescence (GM) ([1]; ID8/Ctrl+DMXAA: 20 μM DMXAA 3 days, control solvent only): 1.67 | AzNAM/DPEG-FAM response enhancement relative to the untreated value ([1]; ID8, 20 μM DMXAA 3 days): 1.8 fold | effect on comparably-treated DMSO controls ([1]; ID8, 20 μM DMXAA 3 days): no effect

complementary oligonucleotide: 5′/3′ FAM bi-labeled probe complementary to surface template, SEQ ID NO:72 (DNA TCCAGATGTCTTTGCTTTTCTTCAGGACACA; 5' and 3' FAM labels, chemistry not fully specified)
fluorescent peak relative to cells incubated with control scrambled oligonucleotide (HeLa cells [6]): significantly shifted fluorescent peak

B1: mIFNβ: murine interferon-beta (protein, UniProt P01575 22-182, looked up)
Interferon beta: INYKQLQLQERTNIRKCQELLEQLNGKINLTYRADFKIPMEMTEKMQKSYTAFAIQEMLQNVFLVFRNNFSSTGWNETIVVRLLDELHQQTVFLKTVLEEKQEERLTWEMSSTALHLKSYYWRVQRYLKLMKYNSYAWMVVRAEIFRNFLIIRRLTRNFQN
geometric mean fluorescence (GM) ([1]; ID8/AzNAM+mIFNβ: 100 ng/ml murine IFN-beta 3 days, 100 μM AzNAM 22 hr prior to harvest): 80.58 | geometric mean fluorescence (GM) ([1]; ID8/DMSO+mIFNβ: 100 ng/ml murine IFN-beta 3 days, control solvent only): 16.49 | labeling change in control DMSO cells ([1]; ID8, 100 ng/ml mIFNβ 3 days): much reduced labeling increase | labeling enhancement of AzNAM-treated cells relative to the untreated value ([1]; ID8, 100 ng/ml mIFNβ 3 days): 2.1 fold
